Results as given in PubChem BioAssay AID651697 (Sanford-Burnham Center for Chemical Genomics, 2012).

Molecular target: Sentrin-specific protease 1 (Homo sapiens) (UniProt Q9P0U3)
Test: SENP1 catalytic domain blockers, concentration series – biochemical, kinetic FRET, dose response (AID 651697)
Details: recombinant SENP1 catalytic domain, kinetic FRET protease assay

Chain of Sentrin-specific protease 1 (Homo sapiens) (Q9P0U3 419-644 limits assumed): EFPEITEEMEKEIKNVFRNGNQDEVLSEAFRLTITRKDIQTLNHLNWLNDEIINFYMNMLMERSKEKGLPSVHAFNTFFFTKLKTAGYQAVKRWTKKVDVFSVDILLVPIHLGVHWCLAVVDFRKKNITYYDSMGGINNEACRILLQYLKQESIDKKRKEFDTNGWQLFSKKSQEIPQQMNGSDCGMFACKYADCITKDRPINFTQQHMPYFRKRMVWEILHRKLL

Compound | IC50
Oc1ccc(Cl)cc1C1=Nc2ccccc2N=C(c2ccco2)C1 | 8.37 µM
Cc1nc2ccc(NS(=O)(=O)c3ccc(F)cc3F)cc2s1 | 18.5 µM
COCCNC(=O)c1cccc2c1C(=O)c1ccc(N3CCOCC3)cc1S2(=O)=O | 14.2 µM
O=C(c1ccccc1)[C@@H]1[C@@H]2C(=O)N(c3ccc(F)cc3)C(=O)[C@@H]2C2CCCN21 (some centres undefined) | 7.71 µM
